# Experimental data taken from patent US20180153995A1, “USE OF ANTIMICROBIAL POLYMERS FOR RE-SENSITIZATION OF MICROORGANISMS UPON EMERGENCE OF RESISTANCE TO ANTI-MICROBIAL AGENTS” (Technion Research & Development Foundation Limited, priority 2008, published 2018).
# Values joined by “and” are separate entries in the source; they are usually repeats but may differ in a detail not shown here. Equal values may be shown once. Read-outs that look alike come from different tables or passages of the source.
# Experiments:
# MRSA 15903 = assay: microbe, parasite or virus in culture; format: cell-based, Staphylococcus aureus
# Outline: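 Values are FIC indexes, summing each agent's MIC in combination divided by its MIC alone, for MRSA 15903. Interpretation: <0.5 clear re-sensitization, 0.5 to 4 marginal or none, >4 antagonistic.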
# S. aureus 43300 = assay: Antibiotic MIC by microdilution with or without sub-MIC polymer; format: cell-based, Staphylococcus aureus
# Experimental: MICs were determined by microdilution susceptibility testing in 96-well plates (by Nunc) using inocula of 10^5 bacteria per ml. Cell populations were evaluated by optical density measurements at 620 nm and were calibrated against a set of standards. Hundred (100) μl of a bacterial suspension were added to 100 μl of culture medium (control) or to 100 μl of culture medium containing various polymer concentrations in 2-fold serial dilutions. Inhibition of proliferation was determined by optical density measurements at 620 nm after an incubation period of 24 hours at 37° C.
# Table 8 below presents the MIC values of antibiotics in presence or absence of C12(5-ene)KKNC12KNH2 (SEQ ID NO: 2) at sub-MIC levels of the polymer, as measured for the S. aureus strains 43300 (ATCC), 15819 (clinical isolate), 15877 (clinical isolate) and 15852 (clinical isolate). MICs were determined by microdilution susceptibility testing in 96-well plates (Nunc) using inocula of 10^5 bacteria per ml. One hundred (100) μl of a bacterial suspension were added to 100 μl of culture medium (control) or to 100 μl of culture medium containing various antibiotic and C12(5-ene)KKNC12KNH2 (SEQ ID NO: 2) concentrations in 2-fold serial dilutions. Inhibition of proliferation was determined by optical density measurements at 620 nm after an incubation period of 24 hours at 37° C.
# 100 μl of a bacterial suspension were added to 100 μl of culture medium (control) or to 100 μl of culture medium containing various antibiotic and C14(9-ene)KKNC12KNH2 (SEQ ID NO: 5) concentrations in 2-fold serial dilutions. Inhibition of proliferation was determined by optical density measurements at 620 nm after an incubation period of 24 hours at 37° C.
# S. aureus 15877 = assay: as above; format: cell-based, Staphylococcus aureus
# S. aureus 17314 = assay: as above; format: cell-based, Staphylococcus aureus
# E. coli 14384 = assay: as above; format: cell-based, Escherichia coli
# Outline: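 OD 620 nm after 24 h at 37° C gave the inhibition of proliferation. Bacteria at 10^5 per ml were exposed to 2-fold serial antibiotic dilutions, with or without […].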
# [1] = +½ MIC (3.12 μM) C12(5-ene)KKNC12KNH2
smiles,measurement,setting,value
"Cc1onc(-c2ccccc2)c1C(=O)N[C@@H]1C(=O)N2[C@@H]1SC(C)(C)[C@@H]2C(=O)O [Oxacillin, oxacillin]",MIC,"MRSA 15903; MRSA 15903, +¼ polymer MIC (1.6 μM) NC12(KNC12K)2NH2",256 µg/mL
same,MIC,"MRSA 15903; MRSA 15903, +½ polymer MIC (3.1 μM) NC12(KNC12K)2NH2",0.17 µg/mL
same,MIC,"MRSA 15903; MRSA 15903, +⅓ polymer MIC (2.1 μM) NC12(KNC12K)2NH2",0.34 µg/mL
same,MIC,"MRSA 15903; MRSA 15903, antibiotic alone",256 µg/mL
same,concentration up to which oxacillin alone is inactive,"MRSA 15903; MRSA 15903, oxacillin alone",> 25 µM
same,"MIC, ½ + MIC OAK","MRSA 15903; MRSA 15903, with C12K(KNC10K)3NH2 (SEQ ID NO: 10) at ½ of its MIC",0.5 µg/mL
same,"MIC, ⅓ + MIC OAK","MRSA 15903; MRSA 15903, with C12K(KNC10K)3NH2 (SEQ ID NO: 10) at ⅓ of its MIC",16 to 64 µg/mL
same,MIC,"MRSA 15903; S. aureus CI-15903, +polymer (¼ MIC) C12(5-ene)KKNC12KNH2",64 µg/mL
same,MIC,"MRSA 15903; S. aureus CI-15903, +polymer (½ MIC) C12(5-ene)KKNC12KNH2",0.25 µg/mL
same,MIC,"MRSA 15903; S. aureus CI-15903, +polymer (⅓ MIC) C12(5-ene)KKNC12KNH2",4 µg/mL
same,MIC,"MRSA 15903; S. aureus CI-15903, alone",256 µg/mL
same,MIC,"MRSA 15903; Staphylococcus aureus, MRSA, 24 h",256 µg/mL
same,MIC,"MRSA 15903; Staphylococcus aureus, MRSA, read-out: MIC of oxacillin",256 µg/mL
same,MIC,"MRSA 15903; Staphylococcus aureus, MRSA, read-out: MIC of oxacillin, MRSA 15903, + ½ MIC NC12(KNC12K)2NH2",0.4 µM
same,MIC,"MRSA 15903; Staphylococcus aureus, MRSA, read-out: MIC of oxacillin, MRSA 15903, + ½ MIC NC12(KNC12K)2NH2 (text)",0.17 µg/mL
same,MIC,"MRSA 15903; Staphylococcus aureus, MRSA, read-out: MIC of oxacillin, MRSA 15903, + ⅓ MIC NC12(KNC12K)2NH2",0.8 µM
same,MIC,"MRSA 15903; Staphylococcus aureus, MRSA, read-out: MIC of oxacillin, MRSA 15903, + ⅓ MIC NC12(KNC12K)2NH2 (text)",0.34 µg/mL
same,MIC,"MRSA 15903; Staphylococcus aureus, MRSA, read-out: MIC of oxacillin, MRSA 15903, oxacillin alone",576 µM
same,Antibiotic MIC,S. aureus 43300; +¼ MIC (1.6 μM) C14(9-ene)KKNC12KNH2,0.25 to 0.5 µg/mL
same,Antibiotic MIC,S. aureus 43300; [1],0.06 µg/mL
same,Antibiotic MIC,S. aureus 43300; +½ MIC (3.12 μM) C14(9-ene)KKNC12KNH2,0.25 µg/mL
same,Antibiotic MIC,S. aureus 43300; +⅓ MIC (2.1 μM) C14(9-ene)KKNC12KNH2,0.25 µg/mL
same,Antibiotic MIC,"S. aureus 43300; no polymer (None), Table 8",0.5 to 1 µg/mL
same,Antibiotic MIC,"S. aureus 43300; no polymer (None), Table 9",0.5 µg/mL
same,Antibiotic MIC,"S. aureus 43300; no polymer (None), Table 10",0.5 to 1 µg/mL
same,Antibiotic MIC,"S. aureus 43300; no polymer (None), Table 11",0.5 µg/mL
same,Antibiotic MIC,"S. aureus 43300; no polymer (None), Table 12",0.5 µg/mL
same,Antibiotic MIC,S. aureus 15877; [1],16 µg/mL
same,Antibiotic MIC,S. aureus 15877; +⅓ MIC (2.1 μM) C12(5-ene)KKNC12KNH2,32 µg/mL
same,Antibiotic MIC,S. aureus 17314,0.125 to 0.25 µg/mL
same,Antibiotic MIC,"S. aureus 17314; S. aureus 17314, +¼ MIC (1.6 μM) C12K(KNC12K)2NH2",0.125 to 0.25 µg/mL
same,Antibiotic MIC,"S. aureus 17314; S. aureus 17314, +¼ MIC (1.6 μM) C12KKNC12KNH2",0.25 µg/mL
same,Antibiotic MIC,"S. aureus 17314; S. aureus 17314, +¼ MIC (1.6 μM) C16(9-ene)KKNC12KNH2",0.25 µg/mL
same,Antibiotic MIC,"S. aureus 17314; S. aureus 17314, +½ MIC (3.12 μM) C12K(KNC12K)2NH2",0.125 to 0.25 µg/mL
same,Antibiotic MIC,"S. aureus 17314; S. aureus 17314, +½ MIC (3.12 μM) C12KKNC12KNH2",0.25 µg/mL
same,Antibiotic MIC,"S. aureus 17314; S. aureus 17314, +½ MIC (3.12 μM) C16(9-ene)KKNC12KNH2",0.06 µg/mL
same,Antibiotic MIC,"S. aureus 17314; S. aureus 17314, +⅓ MIC (2.1 μM) C12K(KNC12K)2NH2",0.125 to 0.25 µg/mL
same,Antibiotic MIC,"S. aureus 17314; S. aureus 17314, +⅓ MIC (2.1 μM) C12KKNC12KNH2",0.25 µg/mL
same,Antibiotic MIC,"S. aureus 17314; S. aureus 17314, +⅓ MIC (2.1 μM) C16(9-ene)KKNC12KNH2",0.25 µg/mL
same,Antibiotic MIC,"S. aureus 17314; S. aureus 17314, no polymer (None), Table 9",0.25 µg/mL
same,Antibiotic MIC,"S. aureus 17314; S. aureus 17314, no polymer (None), Table 10",0.25 to 0.5 µg/mL
same,Antibiotic MIC,"S. aureus 17314; S. aureus 17314, no polymer (None), Table 11",0.25 µg/mL
same,Antibiotic MIC,"S. aureus 17314; S. aureus 17314, no polymer (None), Table 12",0.25 µg/mL
same,Antibiotic MIC,E. coli 14384,256 µg/mL and >512 µg/mL
same,Antibiotic MIC,"E. coli 14384; E. coli 14384, +½ MIC C12K(NC8K)5NH2",256 to 512 µg/mL
same,"Antibiotic MIC, None","E. coli 14384; E. coli 14384, antibiotic alone (Table 15)",>512 µg/mL
same,Antibiotic MIC,"E. coli 14384; E. coli 14384, no polymer (None), Table 9",>512 µg/mL
same,Antibiotic MIC,"E. coli 14384; E. coli 14384, no polymer (None), Table 14",>512 µg/mL
same,"Antibiotic MIC in presence of C12K(NC8K)7NH2 (SEQ ID NO: 4), +¼ MIC","E. coli 14384; E. coli 14384, polymer at ¼ of its MIC",>512 µg/mL
